Assay results as given in patent publication US8097733B2, “Pyrazole derivatives as 5-LO-inhibitors” (Pfizer Inc., priority 2007, dated 2012).

Columns and labels:
recombinant human 5-LOX = target: T1, recombinant human 5-LOX (Homo sapiens, UniProt P09917); test: Fluorescence Intensity 5-LOX Enzyme Assay; type: biochemical; conditions: crude lysate of recombinant human 5-LOX; highest inhibitor concentration tested typically 25 μM
T1 sequence (P09917 1-674): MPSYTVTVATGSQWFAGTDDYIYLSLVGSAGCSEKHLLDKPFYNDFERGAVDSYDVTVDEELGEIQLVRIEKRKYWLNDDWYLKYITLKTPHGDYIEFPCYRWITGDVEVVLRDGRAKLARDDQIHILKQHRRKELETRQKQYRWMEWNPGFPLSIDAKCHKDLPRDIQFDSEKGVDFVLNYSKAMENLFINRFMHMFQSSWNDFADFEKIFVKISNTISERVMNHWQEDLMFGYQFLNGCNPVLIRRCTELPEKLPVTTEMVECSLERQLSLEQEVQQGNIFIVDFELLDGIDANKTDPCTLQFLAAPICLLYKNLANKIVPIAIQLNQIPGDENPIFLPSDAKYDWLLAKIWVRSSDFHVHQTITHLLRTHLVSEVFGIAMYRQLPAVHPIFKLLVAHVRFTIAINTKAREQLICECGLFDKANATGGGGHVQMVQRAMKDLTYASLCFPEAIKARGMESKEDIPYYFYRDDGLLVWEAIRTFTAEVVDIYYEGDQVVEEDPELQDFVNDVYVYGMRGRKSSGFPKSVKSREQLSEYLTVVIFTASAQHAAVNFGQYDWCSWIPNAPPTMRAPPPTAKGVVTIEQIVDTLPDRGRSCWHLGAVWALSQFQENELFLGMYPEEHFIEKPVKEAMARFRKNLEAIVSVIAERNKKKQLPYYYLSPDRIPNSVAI
Excerpt: Bio Data Assays for Allergic and Non Allergic Airways Diseases Fluorescence Intensity 5-LOX Enzyme Assay
The enzyme assay is based on the oxidation of the non-fluorescent compound 2′7′-dichlorodihydrofluorescein diacetate (H2DCFDA) to the fluorescent 2′,7′-dichlorofluorescein by 5-LOX in an arachidonic acid-dependent reaction. Ester cleavage of the acetate groups of the substrate H2DCFDA must occur prior to oxidation. This is achieved through use of a crude cell lysate preparation of recombinant human 5-LOX. The enzyme assay ([…]) contained 50 mM Tris (pH 7.5), 2 mM CaCl2, 2 mM EDTA, 3 μM arachidonic acid (Nu-Chek Prep; #S-1133), 10 μM ATP, 10 μM H2DCFDA (Invitrogen; #D399), inhibitor (varying concentration) and recombinant human 5-LOX enzyme (1.25 μL crude lysate per well).
Inhibitors (dissolved in DMSO) were plated into a 384-well assay plate (Corning #3654) at 1 μL followed by a 20 μL addition of a solution containing 5-LO enzyme and H2DCFDA. Enzyme and H2DCFDA were pre-incubated for 5 min to allow time for acetate group cleavage of the dye prior to addition to the assay plate. After a 10 min pre-incubation of inhibitor and enzyme/dye mix, the assay was initiated by the addition of a substrate solution containing arachidonic acid and ATP. The enzymatic reaction was run for 20 min at room temperature and terminated by the addition of 40 μL of acetonitrile. Assay plates were read in a plate reader using standard wavelengths for fluorescein. IC50s of inhibitors were calculated using a 4-parameter fit using 7 inhibitor concentrations in duplicate with 3-fold serial dilutions. Controls on each plate included no inhibitor (zero percent effect) and 25 μM C J-13610 (one hundred percent effect). The highest inhibitor concentration tested was typically 25 μM. The final DMSO concentration in the assay was 2.5%.

[1] = test system: human whole blood (leukotriene and prostaglandin levels); test: Eicosanoid production from human whole blood; type: cell-based; conditions: human whole blood stimulated with calcium ionophore A23187 and arachidonic acid; ELISA
Method: Human whole blood is collected in 10 ml heparin tubes (Vacutainer, Becton Dickenson). Collected blood is pooled and 80 μL is dispensed into each well of 384 well polypropylene plates. A PlateMate is used to add 2 μL of compound solution in DMSO to the 80 μL of blood in the polypropylene plates. The plate, with blood and compound added, is incubated at room temperature for 10 minutes. 2 μL of a calcimycin (800 ng/ml) (A23187 C-7522, Sigma) and arachidonic acid (30 μM) (NU-Chek PREP, INC. S-1133) solution in 60% ethanol is then added to the blood using a Micromultidrop. The plates are then incubated at 37° C. in a shallow water bath for 15 minutes. Plates are then spun at 800 g for 10 minutes at 4° C. Supernatant is removed and assayed by Elisa (Caymen Chemical).
Eicosanoid Production from Human Whole Blood:
Human whole blood was collected from healthy or asthmatic human donors in 10 ml heparinized tubes (Vacutainer tubes; Becton Dickenson, Franklin Lakes, N.J.). Collected blood was pooled and 80 μL was dispensed into each well of 384 well polypropylene plates using a Multi-prop™ 384-well dispenser (Titertek, Huntsville, Ala.). Varying concentrations of compounds were dissolved in DMSO then 2 μL/well was added to the blood using a PlateMate Plus™ automated pipetting station (Matrix Technologies, Hudson, N.H.). The compounds were preincubated with the blood at room temperature for 10 minutes followed by stimulation with 40 μM calcium ionophore (A23187, Sigma Chemical Co, St. Louis, Mo., Cat. # C-7522) and 30 μM arachidonic acid (S-1133, NU-Chek PREP, Inc., Elysian, MN, Cat. # S-1133) dissolved in 60% ethanol. After 15 min incubation at 37° C. in a shallow water bath, the blood was centrifuged at 8009 for 10 minutes at 4° C., the supernatants collected, and leukotriene and prostaglandin levels measured by ELISA according to the manufacturer's directions (Cayman Chemical Company, Ann Arbor, Mich.). The assay was performed at a final concentration of 2.5% DMSO.

Compound CCc1cn[nH]c1-c1ccc(Sc2cccc(C3(C(N)=O)CCOCC3)c2)cc1 [Example 59, 4-(3-{[4-(4-ethyl-1H-pyrazol-5-yl)phenyl]thio}phenyl)tetrahydro-2H-pyran-4-carboxamide] has an IC50 (recombinant human 5-LOX) of 0.816 µM and an IC50 [1] of 0.89 µM.

In the case of C[C@H]1C[C@@](C#N)(c2cccc([S+]([O-])c3ccc(-c4ccnn4C)cc3)c2F)CCO1 (stereo partly drawn) [Example 54, (2S,4R)-4-(2-fluoro-3-(4-(1-methyl-1H-pyrazol-5-yl)phenylsulfinyl)phenyl)-2-methyl-tetrahydro-2H-pyran-4-carbonitrile], the IC50 (recombinant human 5-LOX) is reported as 0.447 µM and the IC50 [1] is reported as 1.16 µM.

NC(=O)C1(c2cccc(Sc3ccc(-c4ccnn4C4CCCCCC4)cc3)c2)CCOCC1 [Example 4, 4-(3-{[4-(1-cycloheptyl-1H-pyrazol-5-yl)phenyl]thio}phenyl)tetrahydro-2H-pyran-4-carboxamide] gave an IC50 (recombinant human 5-LOX) of 0.0125 µM and an IC50 [1] of 0.26 µM.

C[C@@H]1C[C@](C#N)(c2cccc(Sc3ccc(-c4ccnn4C)cc3)c2)CCO1 [Example 82, (2R,4S)-2-methyl-4-(3-{[4-(1-methyl-1H-pyrazol-5-yl)phenyl]thio}phenyl)tetrahydro-2H-pyran-4-carbonitrile] gave an IC50 (recombinant human 5-LOX) of 1.2 µM and an IC50 [1] of 0.53 µM.

CNC(=O)C1(c2cccc(Sc3ccc(C(=O)c4ccnn4C)c(Cl)c3)c2)CCOCC1 [Example 65, 4-[3-({3-chloro-4-[(1-methyl-1H-pyrazol-5-yl)carbonyl]phenyl}thio)phenyl]-N-methyltetrahydro-2H-pyran-4-carboxamide] showed an IC50 (recombinant human 5-LOX) of 0.0813 µM and an IC50 [1] of 1.06 µM.

In the case of Cn1nccc1-c1ncc(Sc2cccc(C3(C#N)CCOCC3)c2)cc1Cl [Example 47, 4-(3-{[5-chloro-6-(1-methyl-1H-pyrazol-5-yl)pyridin-3-yl]thio}phenyl)tetrahydro-2H-pyran-4-carbonitrile], the IC50 (recombinant human 5-LOX) is reported as 7.77 µM and the IC50 [1] is reported as 0.676 µM.

Cn1nccc1C(=O)c1ccc(Sc2cccc(C3(C(N)=O)CCOCC3)c2)c(F)c1 [Example 67, 4-[3-({2-fluoro-4-[(1-methyl-1H-pyrazol-5-yl)carbonyl]phenyl}thio)phenyl]tetrahydro-2H-pyran-4-carboxamide] was tested, and the IC50 (recombinant human 5-LOX) was 0.209 µM and the IC50 [1] was 1.21 µM.

Cn1nccc1-c1ccc(Sc2cccc(C3(C(N)=O)CCOCC3)c2)c(C#N)c1 [Example 88, 4-(3-{[2-cyano-4-(1-methyl-1H-pyrazol-5-yl)phenyl]thio}phenyl)tetrahydro-2H-pyran-4-carboxamide] was tested, and the IC50 (recombinant human 5-LOX) was 3.22 µM and the IC50 [1] was 1.17 µM.

COc1cc(C(=O)c2ccnn2C)ccc1Sc1cccc(C2(C(N)=O)CCOCC2)c1 [Example 70, 4-[3-({2-methoxy-4-[(1-methyl-1H-pyrazol-5-yl)carbonyl]phenyl}thio)phenyl]tetrahydro-2H-pyran-4-carboxamide] was tested, and the IC50 (recombinant human 5-LOX) was 0.74 µM and the IC50 [1] was 3.13 µM.

With CCn1nccc1-c1ccc(Sc2cccc(C3(C(N)=O)CCOCC3)c2)cc1 [Example 8, 4-(3-{[4-(1-ethyl-1H-pyrazol-5-yl)phenyl]thio}phenyl)tetrahydro-2H-pyran-4-carboxamide] the IC50 (recombinant human 5-LOX) was 0.014 µM and the IC50 [1] was 0.253 µM.

COc1cc(Sc2cccc(C3(C(N)=O)CCOCC3)c2)ccc1C(=O)c1ccnn1C [Example 71, 4-[3-({3-methoxy-4-[(1-methyl-1H-pyrazol-5-yl)carbonyl]phenyl}thio)phenyl]tetrahydro-2H-pyran-4-carboxamide] gave an IC50 (recombinant human 5-LOX) of 0.43 µM and an IC50 [1] of 1.98 µM.

NC(=O)C1(c2cccc(Sc3ccc(-c4ccnn4CC4CCCC4)cc3)c2)CCOCC1 [Example 7, 4-[3-({4-[1-(cyclopentylmethyl)-1H-pyrazol-5-yl]phenyl}thio)phenyl]tetrahydro-2H-pyran-4-carboxamide] showed an IC50 (recombinant human 5-LOX) of 0.0386 µM and an IC50 [1] of 0.0785 µM.

Work on Cn1nccc1C(=O)c1ccc(Sc2cccc(C3(C(N)=O)CCOCC3)c2)cc1C#N [Example 38, 4-[3-({3-cyano-4-[(1-methyl-1H-pyrazol-5-yl)carbonyl]phenyl}thio)phenyl]tetrahydro-2H-pyran-4-carboxamide] yielded an IC50 (recombinant human 5-LOX) of 0.469 µM and an IC50 [1] of 0.64 µM.

For Cn1nccc1C(=O)c1ccc(Sc2cccc(C3(C(N)=O)CCOCC3)c2)cc1C(F)(F)F [Example 37, 4-[3-({4-[(1-methyl-1H-pyrazol-5-yl)carbonyl]-3-(trifluoromethyl)phenyl}thio)phenyl]tetrahydro-2H-pyran-4-carboxamide], the IC50 (recombinant human 5-LOX) was 0.0607 µM and the IC50 [1] was 0.394 µM.

With NC(=O)C1(c2cccc(Sc3ccc(-c4ccnn4C4CCCCC4)cc3)c2)CCOCC1 [Example 5, 4-(3-{[4-(1-cyclohexyl-1H-pyrazol-5-yl)phenyl]thio}phenyl)tetrahydro-2H-pyran-4-carboxamide] the IC50 (recombinant human 5-LOX) was 0.0159 µM and the IC50 [1] was 0.41 µM.

CNC(=O)C1(c2cccc(Sc3ccc(C(=O)c4ccnn4C)cc3)c2)CCOCC1 [Example 72, N-methyl-4-[3-({4-[(1-methyl-1H-pyrazol-5-yl)carbonyl]phenyl}thio)phenyl]tetrahydro-2H-pyran-4-carboxamide] gave an IC50 (recombinant human 5-LOX) of 0.109 µM and an IC50 [1] of 6.36 µM.

C[C@H]1C[C@@](C(N)=O)(c2cccc(Sc3ccc(-c4ccnn4C)c(F)c3)c2)CCO1 [Example 30, (2S,4R)-4-(3-(3-fluoro-4-(1-methyl-1H-pyrazol-5-yl)phenylthio)phenyl)-2-methyl-tetrahydro-2H-pyran-4-carboxamide] gave an IC50 (recombinant human 5-LOX) of 0.014 µM and an IC50 [1] of 0.2 µM.

Cn1nccc1-c1ccc(Sc2cc(F)cc(C3(C(N)=O)CCOCC3)c2F)cc1 [19(10), 4-(2,5-difluoro-3-{[4-(1-methyl-1H-pyrazol-5-yl)phenyl]-thio}phenyl)tetrahydro-2H-pyran-4-carboxamide] was tested, and the IC50 (recombinant human 5-LOX) was 0.0505 µM and the IC50 [1] was 0.48 µM.

Cc1cc(Sc2cccc(C3(C(N)=O)CCOCC3)c2)ccc1-c1ccnn1C [Example 14, 4-(3-{[3-methyl-4-(1-methyl-1H-pyrazol-5-yl)phenyl]thio}phenyl)tetrahydro-2H-pyran-4-carboxamide] showed an IC50 (recombinant human 5-LOX) of 0.11 µM and an IC50 [1] of 0.447 µM.

CNC(=O)C1(c2cc(F)cc(Sc3ccc(-c4ccnn4C)cc3)c2)CCOCC1 [Example 18, 4-(3-fluoro-5-{[4-(1-methyl-1H-pyrazol-5-yl)phenyl]thio}-phenyl)-N-methyltetrahydro-2H-pyran-4-carboxamide] was tested, and the IC50 (recombinant human 5-LOX) was 0.369 µM and the IC50 [1] was 0.596 µM.

Work on Cn1nccc1C(=O)c1cc(F)c(Sc2cccc(C3(C(N)=O)CCOCC3)c2)cc1F [Example 63, 4-[3-({2,5-difluoro-4-[(1-methyl-1H-pyrazol-5-yl)carbonyl]phenyl}thio)phenyl]tetrahydro-2H-pyran-4-carboxamide] yielded an IC50 (recombinant human 5-LOX) of 0.256 µM and an IC50 [1] of 1.26 µM.
